Test results: patent US20200255828A1, “METHODS AND COMPOSITIONS FOR ALTERING FUNCTION AND STRUCTURE OF CHROMATIN LOOPS AND/OR DOMAINS” (THE BROAD INSTITUTE, INC., priority 2017, published 2020)
Several values for one entry are separate records, joined by “and”; a condition that tells them apart may be missing. Equal values may be shown once.

Tested on: HCT-116 RAD21-mAC cells
Experiment: In situ Hi-C: loops and loop domains (HiCCUPS, APA), auxin treatment and withdrawal time course
Type: cell-based, human
Source text: To examine loop domains, Applicants used in situ Hi-C(Rao et al., 2014), which combines DNA-DNA proximity ligation and high-throughput sequencing to create maps showing the frequency of physical contact between all pairs of loci across the genome. Loop domains are manifest in Hi-C maps as a bright “peak” pixel (indicating the link between the two loop anchors) at the corner of a bright square (indicating the presence of a contact domain).
To see if these changes were reversible, Applicants performed a time-course analysis in which untreated cells were exposed to auxin for six hours, after which auxin was withdrawn (FIG. 2B, FIG. 9B). Low resolution Hi-C was performed immediately before treatment, as well as at a series of time points during treatment (at 20, 40, 60, 240, and 360 minutes) and after withdrawal (at 20, 40, 60, 180, 360, 1080, and 1440 minutes). To assess whether the anchors of the loop domains seen in the pre-treatment data continued to be linked (that is, co-located in space) subsequently, Applicants used a method called Aggregate Peak Analysis (APA) (Durand et al., 2016b), which superimposes the signals from a set of peak pixels, thus allowing Applicants to observe an aggregate signal even in sparse datasets where individual signals cannot be resolved (FIG. 2B). The APA signal was initially strong, but was gone by 40 minutes after treatment, and remained absent throughout the rest of the treatment period (FIG. 2B, 9B). The disappearance of the loop-domain links closely mirrored the depletion of cohesin levels in the samples during the treatment period, as ascertained by measuring mClover fluorescence (FIG. 8).
For our time course experiments, cells were treated with 500 uM IAA and crosslinked with 1% formaldehyde directly in wells of a 6-well plate at various time points after treatment (20, 40, 60, 240, 360 minutes). For the auxin withdrawal experiments, after 6 hours treatment with 500 um IAA, the cells were trypsinized, washed twice in fresh media and replated in 6-well plates in fresh media. They were then crosslinked with 1% formaldehyde directly in the 6-well plates at various time points after auxin withdrawal (20, 40, 60, 180, 360, 1080, 1440 minutes).
Applicants generated 69 in situ Hi-C libraries using the MboI restriction enzyme following the protocol described in (Rao et al., 2014) without modifications. In brief, the in situ Hi-C protocol involves crosslinking cells with formaldehyde, permeabilizing them with nuclei intact, digesting DNA with a suitable 4-cutter restriction enzyme, filling the 5′-overhangs while incorporating a biotinylated nucleotide, ligating the resulting blunt-end fragments, shearing the DNA, capturing the biotinylated ligation junctions with streptavidin beads, and analyzing the resulting fragments with paired-end sequencing.
Applicants generated 7 libraries each for the main maps (untreated HCT-116 RAD21-mAC cells and HCT-116 RAD21-mAC cells treated for 6 hours with IAA) comprised of two sets of biological replicates each (three and four technical replicate libraries per biological replicate). In addition, Applicants generated four technical replicate libraries each for untreated and treated HCT-116 RAD21-mAC cells after cell synchronization and arrest. Applicants also generated an additional 5 libraries from untreated HCT-116 RAD21-mAC cells and 4 libraries from HCT-116 RAD21-mAC cells treated for 6 hours with IAA (two additional biological replicates each) that were not included in our main maps, but were used for analysis of higher-order contacts (see below). Applicants generated four libraries (two biological replicates) for each of our loop-resolution maps along the auxin withdrawal time course (20, 40, 60 and 180 mins after auxin withdrawal). Finally, Applicants generated two technical replicate libraries per time point of our auxin treatment and withdrawal time course. […]

SMILES: O=C(O)Cc1c[nH]c2ccccc12 [auxin, indole-3-acetic acid]
- APA score for all loops after auxin treatment (10 kb resolution, >300 kb, untreated 2.09): 0.78
- APA score for loop domains after auxin treatment (10 kb resolution, >300 kb, untreated 2.10): 0.78
- number of loop domains found after auxin treatment (2,140 in untreated cells, all 9 false positives): 9
- time after auxin withdrawal by which APA signal largely recovered (after 6 hours auxin): ≤ 1 h
- time after auxin withdrawal with strong loop domain signal (after 6 hours auxin): ≤ 60 min
- number of loops annotated in auxin-treated cells (default HiCCUPS 5, 10, 25 kb, 3,170 in untreated): 81
- loops lost after auxin treatment (default HiCCUPS parameters): > 97% and ~98%
- time after auxin withdrawal at which reformation of fast loop domains is apparent (fast loop domains): 20 to 40 min
- time after auxin withdrawal until reformation of slow loop domains is seen (slow loop domains): 3 h
